Results published in publication PMC12428754, “Testing Strategies for Metabolite-Mediated Neurotoxicity” (International Journal of Molecular Sciences, 2025).

Assays:
[1] = tested on: hiPSC-derived immature human dorsal root ganglia neuron-like cells; test: PeriTox (UKN5a) neurite outgrowth assay; format: cell-based
Description: PeriTox assay was performed as previously described. In brief, cryopreserved hiPSC-derived immature human dorsal root ganglia neuron-like cells were thawed and plated at a density of 100,000 cells/cm^2 into matrigel-coated 96-well plates. The cells were cultured in 75 µL PeriTox differentiation medium (PDM) consisting of 25% KSR-S and 75% N2-S media supplemented with 1.5 µM CHIR99021, 1.5 µM SU5402, and 5 µM DAPT (KSR-S: knockout DMEM with 15% serum replacement, 1x Glutamax, 1x nonessential amino acids, and […] beta-mercaptoethanol; N2-S: DMEM/F12, with 2 mM Glutamax, 0.1 mg/mL apotransferrin, 1.55 mg/mL glucose, 25 µg/mL insulin, […] putrescine, 30 nM selenium, and 20 nM progesterone). After one hour, 25 µL PDM with 4x concentrated serial dilutions of the test compounds was added to the cells.
The image acquisition and analysis were conducted according to established protocols. The cells were stained with Hoechst H-33342 (1 µg/mL) to visualise nuclei and calcein-AM (1 µM) to label viable cell structures. Fluorescent images were acquired using an automated imaging system. An image analysis algorithm detected nuclei to define somatic regions, which were then excluded from the total calcein-positive area. The remaining signal was quantified as the neurite area.
In the first step, matched technical replicates were averaged. […] For visualisation, GraphPad Prism 9 was used. […]
Supplementary Figure S1: Comparison of data from the MitoMet test and the PeriTox test. A) Exposure scheme for the PeriTox test (UKN5a):
For testing, cryopreserved hiPSC-derived immature human dorsal root ganglia neuron-like cells were thawed and plated into 96-well plates. Cells were treated with toxicants at one h after plating. Neurite outgrowth and viability were determined at 24 h later, using automated high content imaging. B) Benchmark concentrations (BMC25) were calculated as a measure for “onset of toxicity” for the MitoMet (UKN4b; as described in Figure 1) and UKN5a assay. If no BMC could be determined, the highest tested concentration was used as surrogate endpoint. The arrows indicate the sensitivity shifts of parent vs metabolite in the respective assay. […]

[2] = tested on: hiPSC-derived neural crest-like cells; test: cMINC (UKN2) neural crest cell migration assay; format: cell-based, human; conditions: listed under the metabolite
Description: Figure 6 The transfer of the metabolisation module to the neural crest cell migration assay (cMINC). (A) A schematic of the cMINC (circular migration of neural crest cells) assay. The cells were seeded around a central stopper to create a cell-free circular area. Migration was initiated 24 h after seeding by removing the stopper. This is defined as the day of migration (DoM) 0. On DoM 1, the cells were exposed to toxicants. After 24 h of exposure, both cell migration and viability were quantified, using automated high-content imaging. (B) Compatibility of the metabolisation module (preincubation with 500 µg/mL S9 at 37 °C for 2 h) with the cMINC assay: The setup was as described in Figure 4 and as exemplified in Figure 5A. No compound was added (solvent control). The S9 mixture (at 500 µg/mL ± NADPH) was added to the normal cell culture medium of the cMINC assay (so that the addition was 10% of the total volume). Data are from three independent experiments. (C,D) The concentration-dependent effects on migration were evaluated for metabolite mixtures generated from bromethalin (C) or chlorfenapyr (D). […] The arrows indicate the direction of sensitivity shift between NADPH-dependent and -independent metabolite mixtures, with accompanying fold change values. The concentrations are given as nominal concentrations of the parent compound. Abbreviations: n.s., not significant. TEXT PRINTED IN THE PICTURE: (C) Bromethalin: x30 | (D) Chlorfenapyr: x15
The MINC assay was performed as previously described. Briefly, 96-well plates were prepared by inserting a central 2 mm diameter stopper (Platypus Technologies, Madison, WI, USA) into pre-coated wells with a composite poly-L-ornithine (PLO; 10 µg/mL), fibronectin (1 µg/mL), and laminin (1 µg/mL) matrix. […] After a further 24 h (DoM 2), cell migration and viability were assessed. […] High content imaging was performed, and data were analysed using the RingAssay V1 software (http://invitrotox.uni-konstanz.de/, accessed on 3 February 2025). […]

| SMILES | effect on peripheral neurite outgrowth ([1]; result in words) | increase in potency of metabolite compared to parent (BMC25 ratio) [2] | parent/metabolite potency ratio (BMC25) ([1]; listed under the metabolite) |
| --- | --- | --- | --- |
| O=C(c1ccccc1)c1ccc(O)cc1 [4-Hydroxybenzophenone] | neither benzophenone nor its hydroxy metabolite showed any significant effect | over three |  |
| N#Cc1c(-c2ccc(Cl)cc2)[nH]c(C(F)(F)F)c1Br [Tralopyril] |  | 28 fold | 15 |
